Measurements: US8232288B2, “Substituted benzimidazoles, benzothiazoles and benzoxazoles” (Gruenenthal GmbH, priority 2009, dated 2012)

Key:
[1] = target: T1, human B1R receptor (hB1R) (Homo sapiens, UniProt P46663); assay: Functional investigation on the bradykinin receptor 1 (B1R), FLIPR Ca2+ assay, hB1R cells; assay type: cell-based
T1 construct: expressed in transfected cells; host or cells: CHO K1 cells
T1 sequence (P46663 1-353): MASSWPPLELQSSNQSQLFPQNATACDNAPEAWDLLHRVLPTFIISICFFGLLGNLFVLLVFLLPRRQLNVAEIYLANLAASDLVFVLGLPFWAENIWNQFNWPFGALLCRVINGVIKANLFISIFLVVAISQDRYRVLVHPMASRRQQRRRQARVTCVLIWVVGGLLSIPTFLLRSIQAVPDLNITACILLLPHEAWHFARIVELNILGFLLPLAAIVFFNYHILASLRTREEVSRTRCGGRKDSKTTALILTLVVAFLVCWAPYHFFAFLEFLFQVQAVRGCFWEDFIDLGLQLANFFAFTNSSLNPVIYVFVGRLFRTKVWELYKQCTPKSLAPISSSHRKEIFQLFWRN
Protocol: (§1) The agonistic or antagonistic action of substances can be quantified on the bradykinin receptor 1 (B1R) of the human and rat species with ectopically expressing cell lines (CHO K1 cells) and with the aid of a Ca^2+-sensitive dyestuff (Fluo-4) in a fluorescent imaging plate reader (FLIPR). The figure in % activation is based on the Ca^2+ signal after addition of Lys-Des-Arg^9-bradykinin (0.5 nM) or Des-Arg^9-bradykinin (100 nM). Antagonists lead to a suppression of the Ca^2+ inflow after addition of the agonist. % inhibition compared with the maximum achievable inhibition is stated.
(§2) The agonistic or antagonistic action of substances can be determined on the bradykinin receptor 1 (B1R) of the human and rat species with the following assay. In accordance with this assay, the Ca^2+ inflow through the channel is quantified with the aid of a Ca^2+-sensitive dyestuff (type Fluo-4, Molecular Probes Europe BV, Leiden Holland) in a fluorescent imaging plate reader (FLIPR, Molecular Devices, Sunnyvale, USA).
(§3) Chinese hamster ovary cells (CHO K1 cells) transfected stably with the human B1R gene (hB1R cells) or the B1R gene of the rat (rB1R cells) are used. For functional studies, these cells are plated out on black 96-well plates with a clear base (BD Biosciences, Heidelberg, Germany or Greiner, Frickenhausen, Germany) in a density of 20,000-35,000 cells/well. The cells are left overnight at 37° C. and 5% CO2 in culture medium (hB1R cells: Nutrient Mixture Ham's F12, Gibco Invitrogen GmbH, Karlsruhe, Germany or DMEM, Sigma-Aldrich, Taufkirchen, Germany; rB1R cells: D-MEM/F12, Gibco Invitrogen GmbH, Karlsruhe, Germany) with 10 vol. % FBS (foetal bovine serum, Gibco Invitrogen GmbH, Karlsruhe, Germany or PAN Biotech GmbH, Aidenbach, Germany). On the following day, the cells are loaded for 60 min at 37° C. with 2.13 μM Fluo-4 (Molecular Probes Europe BV, Leiden Holland) in HBSS buffer (Hank's buffered saline solution, Gibco Invitrogen GmbH, Karlsruhe, Germany) with 2.5 mM probenecid (Sigma-Aldrich, Taufkirchen, Germany) and 10 mM HEPES (Sigma-Aldrich, Taufkirchen, Germany). The plates are then washed 2× with HBSS buffer, and HBSS buffer which additionally contains 0.1% BSA (bovine serum albumin; Sigma-Aldrich, Taufkirchen, Germany), 5.6 mM glucose and 0.05% gelatine (Merck KGaA, Darmstadt, Germany) is added. After a further incubation of 20 minutes at room temperature, the plates are inserted into the FLIPR for the Ca^2+ measurement.
(§4) Alternatively, the plates are washed with buffer A (15 mM HEPES, 80 mM NaCl, 5 mM KCl, 1.2 mM CaCl2, 0.7 mM MgSO4, 2 g/l glucose, 2.5 mM probenecid), buffer A is added and the plates are loaded with 2.5 μM Fluo-4 and 0.025% Pluronic F127 (Sigma-Aldrich, Taufkirchen, Germany). Thereafter, the cells are washed 2× with buffer A and incubated for 30 minutes at room temperature with buffer A, which additionally contains 0.05% BSA and 0.05% gelatine, and thereafter inserted into the FLIPR for the Ca^2+ measurement.
(§5) The Ca^2+-dependent fluorescence is measured here before and after addition of substances (λex=488 nm, λem=540 nm). Quantification is by measurement of the highest fluorescence intensity (FC, fluorescence counts) over time.
(§6) The FLIPR protocol consists of 2 additions of substance. Test substances (10 μM) are first pipetted on to the cells and the Ca^2+ inflow is compared with the control (hB1R: Lys-Des-Arg^9-bradykinin>=50 nM; rB1R: Des-Arg^9-bradykinin 10 μM). This gives the result in % activation based on the Ca^2+ signal after addition of Lys-Des-Arg^9-bradykinin (>=50 nM) or Des-Arg^9-bradykinin (10 μM). After incubation for 10-20 minutes, Lys-Des-Arg^9-bradykinin (hB1R) or Des-Arg^9-bradykinin (rB1R) in the concentration of the EC80 is applied and the inflow of Ca^2+ is likewise determined. Antagonists lead to a suppression of the Ca^2+ inflow. % inhibition compared with the maximum achievable inhibition is calculated.
(§7) In order to determine the IC50 value, the substances are added in various concentrations. […]

[2] = target: T2, B1R receptor of the rat (rB1R) (Rattus norvegicus, UniProt P97583); assay: Functional investigation on the bradykinin receptor 1 (B1R), FLIPR Ca2+ assay, rB1R cells; assay type: cell-based
T2 construct: expressed in transfected cells; host or cells: CHO K1 cells
T2 sequence (P97583 1-337): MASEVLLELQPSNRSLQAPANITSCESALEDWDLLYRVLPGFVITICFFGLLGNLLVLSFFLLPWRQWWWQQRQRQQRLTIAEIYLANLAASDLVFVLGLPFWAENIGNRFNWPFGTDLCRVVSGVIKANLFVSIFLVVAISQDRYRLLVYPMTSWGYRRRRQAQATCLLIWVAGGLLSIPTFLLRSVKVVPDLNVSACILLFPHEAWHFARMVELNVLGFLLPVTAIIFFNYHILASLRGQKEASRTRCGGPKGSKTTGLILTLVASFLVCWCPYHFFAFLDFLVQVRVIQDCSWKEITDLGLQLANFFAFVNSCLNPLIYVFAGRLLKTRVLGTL
Protocol: as §1, §2, §3, §4, §5, §6, §7

COc1cc(C)c(S(=O)(=O)N(Cc2nc3cccc(C(=O)N4CCC5(CC4)CCN(c4ccncc4)CC5)c3[nH]2)C2CC2)c(C)c1 [I_14, N-cyclopropyl-4-methoxy-2,6-dimethyl-N-[[7-(9-pyridin-4-yl-3,9-diazaspiro[5.5]undecane-3-carbonyl)-1H-benzoimidazol-2-yl]-methyl]-benzenesulfonic acid amide]
inhibition at 10 µM [1]: 99% | inhibition at 10 µM [2]: 95%

COc1cc(C)c(S(=O)(=O)N(C)Cc2nc3cccc(CN4CCC5(CC4)CCN(c4ccncc4)CC5)c3[nH]2)c(C)c1 [I_15, 4-methoxy-N,2,6-trimethyl-N-[[7-[(9-pyridin-4-yl-3,9-diazaspiro[5.5]undecan-3-yl)-methyl]-1H-benzoimidazol-2-yl]-methyl]-benzenesulfonic acid amide]
inhibition at 10 µM [1]: 100% | inhibition at 10 µM [2]: 103%

CN(Cc1nc2cccc(C(=O)N3CCC4(CC3)CCN(c3ccncc3)CC4)c2[nH]1)C(=O)c1ccc(Cl)s1 [I_16, 5-chloro-N-methyl-N-[[7-(9-pyridin-4-yl-3,9-diazaspiro[5.5]undecane-3-carbonyl)-1H-benzoimidazol-2-yl]-methyl]-thiophene-2-carboxylic acid amide]
inhibition at 10 µM [1]: 91% | inhibition at 10 µM [2]: 105%

Cc1ccc(Cl)c(S(=O)(=O)N(C)Cc2nc3cccc(C(=O)N4CCC5(CC4)CCN(c4ccncc4)CC5)c3[nH]2)c1Cl [I_17, 2,6-dichloro-N,3-dimethyl-N-[[7-(9-pyridin-4-yl-3,9-diazaspiro[5.5]undecane-3-carbonyl)-1H-benzoimidazol-2-yl]-methyl]-benzenesulfonic acid amide]
inhibition at 10 µM [1]: 95% | inhibition at 10 µM [2]: 24%

COc1cc(C)c(S(=O)(=O)N2CCCCC2c2nc3cccc(C(=O)N4CCC5(CC4)CCN(c4ccncc4)CC5)c3[nH]2)c(C)c1 (stereo not shown) [I_18, [2-[1-[(4-methoxy-2,6-dimethyl-phenyl)sulfonyl]-piperidin-2-yl]-3H-benzoimidazol-4-yl]-(9-pyridin-4-yl-3,9-diazaspiro[5.5]undecan-3-yl)-methanone]
inhibition at 10 µM [1]: 97% | inhibition at 10 µM [2]: 49%

COc1cc(C)c(S(=O)(=O)N2CCCC2c2nc3cccc(C(=O)N4CCC5(CC4)CCN(c4ccncc4)CC5)c3[nH]2)c(C)c1 (stereo not shown) [I_19, [2-[1-[(4-methoxy-2,6-dimethyl-phenyl)sulfonyl]-pyrrolidin-2-yl]-3H-benzoimidazol-4-yl]-(9-pyridin-4-yl-3,9-diazaspiro[5.5]undecan-3-yl)-methanone]
inhibition at 10 µM [1]: 100% | inhibition at 10 µM [2]: 76%

COc1cc(C)c(S(=O)(=O)N(C)Cc2nc3c(C(=O)N4CCC5(CC4)CCN(c4ccncc4)CC5)cccc3n2C)c(C)c1 [I_20, 4-methoxy-N,2,6-trimethyl-N-[[1-methyl-4-(9-pyridin-4-yl-3,9-diazaspiro[5.5]undecane-3-carbonyl)-1H-benzoimidazol-2-yl]-methyl]-benzenesulfonic acid amide]
inhibition at 10 µM [1]: 98% | inhibition at 10 µM [2]: 30%

COc1cc(C)c(S(=O)(=O)N(C)Cc2nc3cccc(CC(=O)N4CCC5(CC4)CCN(c4ccncc4)CC5)c3[nH]2)c(C)c1 [I_21, 4-methoxy-N,2,6-trimethyl-N-[[7-[2-oxo-2-(9-pyridin-4-yl-3,9-diazaspiro[5.5]undecan-3-yl)-ethyl]-1H-benzoimidazol-2-yl]-methyl]-benzenesulfonic acid amide]
inhibition at 10 µM [1]: 99% | inhibition at 10 µM [2]: 55%

COc1cc(C)c(S(=O)(=O)N(C)Cc2nc3ccc(C(=O)N4CCC5(CC4)CCN(c4ccncc4)CC5)cc3[nH]2)c(C)c1 [I_22, 4-methoxy-N,2,6-trimethyl-N-[[6-(9-pyridin-4-yl-3,9-diazaspiro[5.5]undecane-3-carbonyl)-1H-benzoimidazol-2-yl]-methyl]-benzenesulfonic acid amide]
inhibition at 10 µM [1]: 100% | inhibition at 10 µM [2]: 103%

Cc1cccc(Cl)c1S(=O)(=O)N(C)Cc1nc2ccc(C(=O)N3CCC4(CC3)CCN(c3ccncc3)CC4)cc2[nH]1 [I_23, 2-chloro-N,6-dimethyl-N-[[6-(9-pyridin-4-yl-3,9-diazaspiro[5.5]undecane-3-carbonyl)-1H-benzoimidazol-2-yl]-methyl]-benzenesulfonic acid amide]
inhibition at 10 µM [1]: 100% | inhibition at 10 µM [2]: 101%

CN(Cc1nc2ccc(C(=O)N3CCC4(CC3)CCN(c3ccncc3)CC4)cc2[nH]1)S(=O)(=O)c1ccccc1C(F)(F)F [I_24, N-methyl-N-[[6-(9-pyridin-4-yl-3,9-diazaspiro[5.5]undecane-3-carbonyl)-1H-benzoimidazol-2-yl]-methyl]-2-(trifluoromethyl)-benzenesulfonic acid amide]
inhibition at 10 µM [1]: 100% | inhibition at 10 µM [2]: 102%

CN(Cc1nc2ccc(C(=O)N3CCC4(CC3)CCN(c3ccncc3)CC4)cc2[nH]1)S(=O)(=O)c1cccc2ccccc12 [I_25, N-methyl-N-[[6-(9-pyridin-4-yl-3,9-diazaspiro[5.5]undecane-3-carbonyl)-1H-benzoimidazol-2-yl]-methyl]-naphthalene-1-sulfonic acid amide]
inhibition at 10 µM [1]: 95% | inhibition at 10 µM [2]: 96%

COc1cc(C)c(S(=O)(=O)N(C)CCc2nc3ccc(C(=O)N4CCC5(CC4)CCN(c4ccncc4)CC5)cc3[nH]2)c(C)c1 [I_26, 4-methoxy-N,2,6-trimethyl-N-[2-[6-(9-pyridin-4-yl-3,9-diazaspiro[5.5]undecane-3-carbonyl)-1H-benzoimidazol-2-yl]-ethyl]-benzenesulfonic acid amide]
inhibition at 10 µM [1]: 98% | inhibition at 10 µM [2]: 103%

COc1cc(C)c(S(=O)(=O)N(C)Cc2nc3cccc(C(=O)N4CCC5(CC4)CC(c4ccncc4)=NO5)c3[nH]2)c(C)c1 [I_27, 4-methoxy-N,2,6-trimethyl-N-[[7-(3-pyridin-4-yl-1-oxa-2,8-diazaspiro[4.5]dec-2-ene-8-carbonyl)-1H-benzoimidazol-2-yl]-methyl]-benzenesulfonic acid amide]
inhibition at 10 µM [1]: 93% | inhibition at 10 µM [2]: 94%
